The source made the active and inactive calls. The rule behind the calls is not given here.
Legend:
[1] = molecular target: T1, Estrogen receptor (Homo sapiens) (UniProt P03372); assay: Binding affinity to human ERalpha assessed as relative binding affinity incubated under vibration for 1 min followed by 2 hrs incubation under dark condition by fluorescence polarization assay relative to estradiol; conditions: time 121.0 min
T1 sequence (whole entry): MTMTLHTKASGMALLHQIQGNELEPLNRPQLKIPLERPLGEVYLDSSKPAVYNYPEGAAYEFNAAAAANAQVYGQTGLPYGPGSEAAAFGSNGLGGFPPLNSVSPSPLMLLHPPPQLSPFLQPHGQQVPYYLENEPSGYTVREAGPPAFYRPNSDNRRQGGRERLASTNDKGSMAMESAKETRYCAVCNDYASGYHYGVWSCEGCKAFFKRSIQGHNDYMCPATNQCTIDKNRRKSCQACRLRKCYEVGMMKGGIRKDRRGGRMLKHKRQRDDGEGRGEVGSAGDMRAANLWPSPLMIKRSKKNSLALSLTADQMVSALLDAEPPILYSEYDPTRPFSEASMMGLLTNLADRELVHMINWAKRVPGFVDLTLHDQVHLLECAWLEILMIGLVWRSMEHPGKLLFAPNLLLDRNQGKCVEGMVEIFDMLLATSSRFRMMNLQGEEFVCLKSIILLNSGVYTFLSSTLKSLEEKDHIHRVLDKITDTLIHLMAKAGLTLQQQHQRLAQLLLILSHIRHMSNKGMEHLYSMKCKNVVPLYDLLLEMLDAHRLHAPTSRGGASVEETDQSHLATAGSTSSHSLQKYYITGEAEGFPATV

MCF7 [2] = assay: Antitumor activity against human MCF7 cells xenografted in Balb/c nude mouse assessed as tumor growth inhibition at 4 mg/kg, ip administered every other day for 20 days relative to control; assay type: functional; conditions: MCF7, 480 h, time 20 day, read-out: TGI
Tubulin (Homo sapiens) [3] = molecular target: T2, Tubulin (Homo sapiens) (UniProt P68371+Q9H4B7+P0DPH7+P68366+Q13509+Q71U36+P04350+Q3ZCM7+P07437+P68363+Q9BQE3+Q6PEY2+Q13885+Q9BVA1+Q9BUF5); assay: Disruption of microtubule network in human LCC2 cells assessed as ruptured microtubule network at 4 uM incubated for 48 hrs by DAPI staining based confocal laser scanning microscopic analysis; assay type: cell-based
LCC2 = assay: Induction of cell cycle arrest in human LCC2 cells assessed as accumulation of cells at G2/M phase incubated for 48 hrs by flow cytometry analysis; assay type: functional, cell-based; conditions: dose 6-24 µM
[4] = Toxicity in Balb/c nude mouse xenografted with human MCF7 cells assessed as body weight loss at 2 to 4 mg/kg, ip administered every other day for 20 days; assay type: organism-based; conditions: in vivo, 480 h, dose 2-4 mg/kg, time 20 day
[5] = molecular target: T1, Estrogen receptor (Homo sapiens); assay: Induction of ERalpha degradation in human MCF7 cells at 5 uM incubated for 24 hrs by Western blot analysis relative to SeCN-OBHSA derivatives; assay type: cell-based
MCF7 [6] = assay: Antiproliferative activity against ERalpha positive human MCF7 cells assessed as inhibition of cell proliferation incubated for 72 hrs by CCK8 assay; assay type: functional, cell-based; conditions: MCF7, 72 h
[7] = Selectivity index, ratio of IC50 for cytotoxicity against human MCF-10A cells to IC50 for antiproliferative activity against human MCF7 cells; assay type: toxicity, cell-based; conditions: MCF-10A cells and MCF7 cells, read-out: Ratio IC50
Tubulin (Homo sapiens) [8] = molecular target: T2, Tubulin (Homo sapiens); assay: Inhibition of tubulin polymerization (unknown origin) at 30 uM incubated for 60 mins by microplate reader analysis; assay type: protein-complex assay
[9] = molecular target: T1, Estrogen receptor (Homo sapiens); assay: Induction of ERalpha degradation in human MCF7 cells at 5 uM incubated for 24 hrs by Western blot analysis; assay type: cell-based
[10] = test system: Tamoxifen-resistant LCC2 cell; assay: Antitumor activity against human Tamoxifen-resistant LCC2 cells xenografted in Balb/c nude mouse assessed as reduction in Ki67 positive cells at 2 mg/kg, ip administered every other day for 20 days by immunohistochemistry analysis; assay type: functional, organism-based; conditions: time 20.0 day
[11] = Antitumor activity against human Tamoxifen-resistant LCC2 cells xenografted in Balb/c nude mouse assessed as tumor growth inhibition at 2 mg/kg, ip administered every other day for 20 days relative to control; assay type: functional; conditions: Tamoxifen-resistant LCC2 cell, 480 h, time 20 day, read-out: TGI

RBA [1]: 8.57%
Activity (Tubulin (Homo sapiens) [3]): Active
Activity [5]: Active
IC50 (MCF7 [6]): 60 nM
tubulin polymerization inhibition (active/not active) (Tubulin (Homo sapiens) [8]): Active
Activity [9]: Active
SMILES: N#C[Se]CCCCCC(=O)Nc1ccc(C2=C(c3ccc(O)cc3)C3CC(S(=O)(=O)N(CC(F)(F)F)c4ccccc4F)C2O3)cc1 (configuration not stated)
inhibition in vivo at 4 mg/kg (MCF7 [2]): 77.7%
Activity (LCC2): Dose-Dependent Effect
Activity [4]: Non-Toxic
selectivity ratio [7]: 264
Activity [10]: Active
inhibition in vivo at 2 mg/kg [11]: 51.4%

Source: ChEMBL document CHEMBL5360672, “Identification of Novel Dual-Target Estrogen Receptor α Degraders with Tubulin Inhibitory Activity for the Treatment of Endocrine-Resistant Breast Cancer” (J Med Chem, 2023)
